We go through four compounds from US20250136572A1, “PARA ACYL SUBSTITUTED DIAZACYCLOHEXENE DERIVATIVES” (Renovel Innovations, Inc., priority 2021, published 2025).

The structures appear in SMILES notation.

Experiment [1] can be described thus: Fasting blood glucose in mice on high fat diet. It counts as in vivo. The settings on record: compared with the control high fat diet group.
In another experiment the test system is TNF-α. Nature of the experiment: TNF-α in LPS-treated mice. The format is in vivo. The settings on record: from the LPS group.
Experiment [2] can be described thus: Triglycerides in high fructose fed hamsters. The format is in vivo. The settings on record: compared with the high fructose fed group.
Experiment [3] is described as follows: Oral glucose tolerance test in C57BL/6 mice on high fat diet. It counts as in vivo. More on the design: concentration or dose not given beside the values. The settings on record: for reduction in blood glucose at the peak oral glucose tolerance test of 30 minutes: compared with the control high fat diet group.
The nature of the next experiment: Blood pressure in rats. It counts as in vivo. Particulars: compared to the vehicle group.
Experiment [4] can be described thus: Body weight in C57BL/6 mice on high fat diet. It counts as in vivo, male C57BL/6 mice. The settings on record: for decrease in body weight: compared to the high fat diet control group.

For `CCOC(=O)C1=C(C)NC(=O)NC1c1ccc(OC(=O)/C=C/c2ccccc2)cc1` (stereo not shown) [Compound 1, 6-Methyl-2-oxo-4-[4-(3-phenyl-acryloyloxy)-phenyl]-1,2,3,4-tetrahydro-pyrimidine-5-carboxylic acid ethyl ester], the “decrease in fasting blood glucose” value in experiment [1] is recorded as 26%. In addition, the “decrease of TNF-α” value in the experiment with TNF-α was 59%. Further, the decrease in triglycerides in experiment [2] worked out at 31%. Moreover, the “reduction in blood glucose at the peak oral glucose tolerance test of 30 minutes” value (from here on “reduction in blood glucose … of 30 minutes”) in experiment [3] was determined as 23%. In addition, in the experiment “Blood pressure in rats”, the “decrease in diastolic blood pressure” value is 8% and the “decrease in systolic blood pressure” value came out at 4%. The “decrease in percent change in body weight” value in experiment [4] (FIG. 1B, compared with the control high fat diet group) is 15%.

Take `CCOC(=O)C1=C(C)NC(=O)NC1c1ccc(OC(=O)/C=C/c2ccccc2)c(OC)c1` (stereo not shown) [Compound 2, 4-[3-Methoxy-4-(3-phenyl-acryloyloxy)-phenyl]-6-Methyl-2-oxo-1,2,3,4-tetrahydro-pyrimidine-5-carboxylic acid ethyl ester]: in experiment [3], the “reduction in blood glucose … of 30 minutes” value is recorded as 8%. Also, the “decrease in body weight” value in experiment [4] (FIG. 6A, C57BL/6 mice) was 5%; in experiment [4] (FIG. 6B, significant (P<0.0001)), 15%.

For the compound `CCOC(=O)C1=C(C)NC(=O)NC1c1ccc(OC(=O)C(C)C)c(OC)c1` (stereo not shown) [Compound 3, 4-(4-Isobutyryloxy-3-methoxy-phenyl)-6-methyl-2-oxo-1,2,3,4-tetrahydro-pyrimidine-5-carboxylic acid ethyl ester], the “reduction in blood glucose … of 30 minutes” value in experiment [3] worked out at 6%.

Regarding `CCOC(=O)C1=C(C)NC(=S)NC1c1ccc(OC(=O)C(C)C)c(OC)c1` (stereo not shown) [Compound 4, 4-(4-Isobutyryloxy-3-methoxy-phenyl)-6-methyl-2-thioxo-1,2,3,4-tetrahydro-pyrimidine-5-carboxylic acid ethyl ester], the “reduction in blood glucose … of 30 minutes” value in experiment [3] came to 33%. Also, the “reduction in blood glucose at 120 minutes after glucose administration” value in experiment [3] (120 minutes after glucose administration) was 26%.
